Assay results from ChEMBL document CHEMBL4819087, “Identification and optimization of 3-bromo-N'-(4-hydroxybenzylidene)-4-methylbenzohydrazide derivatives as mTOR inhibitors that induce autophagic cell death and apoptosis in triple-negative breast cancer” (Eur J Med Chem, 2021).

What was measured:
[1] = target: Serine/threonine-protein kinase mTOR (Homo sapiens, UniProt P42345); experiment: Inhibition of mTOR (unknown origin)
MDA-MB-468 = experiment: cells; conditions: Homo sapiens, MDA-MB-468, 24 h
Description: Antiproliferative activity against human MDA-MB-468 cells assessed as reduction in cell viability incubated for 24 hrs by MTT assay

MDA-MB-231 [2] = experiment: Induction of autophagy in human MDA-MB-231 cells assessed as MDC positive ratio at 1 uM incubated for 6 hrs by MDC staining based flow cytometry analysis; type: functional
A549 = experiment: cells; conditions: Homo sapiens, A549, 24 h
Description: Antiproliferative activity against human A549 cells assessed as reduction in cell viability incubated for 24 hrs by MTT assay

MDA-MB-231 [3] = experiment: cells; conditions: Homo sapiens, MDA-MB-231, 24 h
Description: Antiproliferative activity against human MDA-MB-231 cells assessed as reduction in cell viability incubated for 24 hrs by MTT assay

O=C(NCc1cccc(Br)c1)Nc1ccc(C(F)(F)F)cc1
IC50 [1]: 15.8 µM | IC50 (MDA-MB-468): 24.3 µM | Activity (MDA-MB-231 [2]): 9.1% | IC50 (A549): 26.4 µM | IC50 (MDA-MB-231 [3]): 20.8 µM

O=C(Nc1nc2ccccc2[nH]1)c1ccc(OC(F)(F)F)cc1
IC50 [1]: 3.99 µM | IC50 (MDA-MB-468): 24.1 µM | Activity (MDA-MB-231 [2]): 11.22% | IC50 (A549): 27.5 µM | IC50 (MDA-MB-231 [3]): 29 µM

C/C(=N\NC(=O)c1cccc(F)c1)c1ccc(C(=O)Nc2nc3ccccc3[nH]2)cc1
IC50 [1]: 0.83 µM | IC50 (MDA-MB-468): 6.06 µM | Activity (MDA-MB-231 [2]): 22.34% | IC50 (A549): 7.81 µM | IC50 (MDA-MB-231 [3]): 5.03 µM

O=C(NCc1cc(C(F)(F)F)cc(C(F)(F)F)c1)Nc1ccc(C(F)(F)F)cc1
IC50 [1]: 20.4 µM | IC50 (MDA-MB-468): 17.9 µM | Activity (MDA-MB-231 [2]): 9.62% | IC50 (A549): 13.3 µM | IC50 (MDA-MB-231 [3]): 16.9 µM

C/C(=N\NC(=O)c1cccc(Br)c1)c1ccc(N)cc1
IC50 [1]: 6.21 µM | IC50 (MDA-MB-468): 13.1 µM | Activity (MDA-MB-231 [2]): 15.81% | IC50 (A549): 13 µM | IC50 (MDA-MB-231 [3]): 10.9 µM

C/C(=N\NC(=O)c1cccc(Br)c1)c1ccc(C(=O)Nc2cc[nH]n2)cc1
IC50 [1]: 1.29 µM | IC50 (MDA-MB-468): 8.32 µM | Activity (MDA-MB-231 [2]): 19.78% | IC50 (A549): 10.5 µM | IC50 (MDA-MB-231 [3]): 9.24 µM

C/C(=N\NC(=O)c1cccc(I)c1)c1ccncc1
IC50 [1]: 1.17 µM | IC50 (MDA-MB-468): 12.1 µM | Activity (MDA-MB-231 [2]): 15.79% | IC50 (A549): 9.84 µM | IC50 (MDA-MB-231 [3]): 12.5 µM

O=C(NCc1ccc(O)cc1)Nc1cccc(F)c1
IC50 [1]: > 30 µM | IC50 (MDA-MB-468): 34.1 µM | Activity (MDA-MB-231 [2]): 8.31% | IC50 (A549): 22.3 µM | IC50 (MDA-MB-231 [3]): 27.7 µM

Cc1ccc(C(=O)Nc2cc3ccccc3cn2)cc1Br
IC50 [1]: 15.3 µM | IC50 (MDA-MB-468): 25.9 µM | Activity (MDA-MB-231 [2]): 11.8% | IC50 (A549): 26.4 µM | IC50 (MDA-MB-231 [3]): 32.1 µM

Cc1ccc(C(=O)Nc2ccc3ccccc3n2)cc1Br
IC50 [1]: 17.9 µM | IC50 (MDA-MB-468): 27.5 µM | Activity (MDA-MB-231 [2]): 13.81% | IC50 (A549): 31.6 µM | IC50 (MDA-MB-231 [3]): 38 µM

C/C(=N\NC(=O)c1cccc(I)c1)c1ccc(N)cc1
IC50 [1]: 4.79 µM | IC50 (MDA-MB-468): 8.3 µM | Activity (MDA-MB-231 [2]): 15.27% | IC50 (A549): 13 µM | IC50 (MDA-MB-231 [3]): 13.1 µM

O=C(NCc1ccc(O)cc1)Nc1cccc(Cl)c1
IC50 [1]: 27.1 µM | IC50 (MDA-MB-468): 25.9 µM | Activity (MDA-MB-231 [2]): 9.22% | IC50 (A549): 31.2 µM | IC50 (MDA-MB-231 [3]): 19.5 µM

O=C(NCc1ccc(O)cc1)Nc1ccc(C(F)(F)F)cc1
IC50 [1]: 10.3 µM | IC50 (MDA-MB-468): 17.5 µM | Activity (MDA-MB-231 [2]): 8.29% | IC50 (A549): 36.7 µM | IC50 (MDA-MB-231 [3]): 22.9 µM

C/C(=N\NC(=O)c1cccc(I)c1)c1ccc(C(=O)O)cc1
IC50 [1]: 0.82 µM | IC50 (MDA-MB-468): 6.37 µM | Activity (MDA-MB-231 [2]): 17.2% | IC50 (A549): 8.91 µM | IC50 (MDA-MB-231 [3]): 8.96 µM

C/C(=N\NC(=O)c1ccc(C)c(I)c1)c1ccc(N)cc1
IC50 [1]: 5.08 µM | IC50 (MDA-MB-468): 9.54 µM | Activity (MDA-MB-231 [2]): 14.28% | IC50 (A549): 9.93 µM | IC50 (MDA-MB-231 [3]): 8.46 µM

C/C(=N\NC(=O)c1ccc(C)c(Br)c1)c1ccc(O)cc1
IC50 [1]: 2.01 µM | IC50 (MDA-MB-468): 8.46 µM | Activity (MDA-MB-231 [2]): 19.27% | IC50 (A549): 10.1 µM | IC50 (MDA-MB-231 [3]): 6.71 µM

C/C(=N\NC(=O)c1ccc(C)c(Br)c1)c1ccc(N)cc1
IC50 [1]: 7.3 µM | IC50 (MDA-MB-468): 12.1 µM | Activity (MDA-MB-231 [2]): 18.9% | IC50 (A549): 13.6 µM | IC50 (MDA-MB-231 [3]): 9.91 µM

CN(Cc1ccccc1)C(=O)Nc1ccc(C(F)(F)F)cc1
IC50 [1]: 10.1 µM | IC50 (MDA-MB-468): 21.9 µM | Activity (MDA-MB-231 [2]): 7.34% | IC50 (A549): 28.8 µM | IC50 (MDA-MB-231 [3]): 21.2 µM

CC(NC(=O)Nc1cccc(Cl)c1)c1ccccc1 (stereo not given)
IC50 [1]: > 30 µM | IC50 (MDA-MB-468): 23.7 µM | Activity (MDA-MB-231 [2]): 9.25% | IC50 (A549): 24.8 µM | IC50 (MDA-MB-231 [3]): 22.6 µM
